Measured values published in patent EP4345091A1, “BENZOIC ACID DERIVATIVES, METHODS AND USES THEREOF” (priority 2022, dated 2024).
In brackets after ≈: the same amount, converted by molar mass. Where two headings read alike, the source gives them in different places.

Assays:
[1] = test system: Mycobacterium tuberculosis H37Rv; assay: MIC and MBC by broth microdilution against M. tuberculosis H37Rv; format: cell-based, Mycobacterium tuberculosis H37Rv (ATCC 27294); conditions: Mycobacterium tuberculosis, H37RV
[2] = Stability in human plasma (enzymatic hydrolysis)
Description: The studies of stability in human plasma were performed in human plasma diluted to 80% with phosphate buffer pH 7.4 of total concentration 0.05 M and ionic strength 0.15 M at 37°C. […] Study of enzymatic hydrolysis. […] Initial substrate concentration (ester) - 5×10^-4M with 2% ACN.
Pooled human plasma (960 µL), pH 7.4 phosphate buffered saline (216 µL), 18 µL ACN and 6 µL of a 10-1 M stock solution of the prodrug in ACN were mixed in a 2mL vial. The suspensions were incubated at 37 °C and 50 µL aliquots were removed, mixed with 450 µL of ACN: ZnSO4 1% 1:1 and centrifuged. The supernatant was removed and analysed by HPLC, the remaining substrate and the correspondent acid measured.
Two HPLC systems were used. The buffer and plasma stability studies were performed in an HPLC system with a photodiode detector L-3000 Photo Diode Array Detector, Merck-Hitachi L-6000 pump, Merck-Hitachi D-2500 integrator, and Merck RP-8 column. […] The eluant was a mixture of acetonitrile (60%/70%) and aqueous phosphate buffer with 5% of KH2PO4/H3PO4 0.025M (40%/30%). The flow rate was always 1 mL/1 min and wavelength was set at 230 nm. All quantifications were evaluated using calibration curves from stock solutions.
The initial substrate concentration was 5 x 10^-4 M in all stability assays. All incubations were carried out at pH 7.4 and 37 °C under agitation using the phosphate buffer described above as diluting agent. […] Acetonitrile (2%) was used in all studies to ensure adequate solubilization of the substrates. The benzoates were added from 10 to 1M acetonitrile stock solutions. After incubation, aliquots of 50 µL were taken into vials containing 450 µL of a 1:1 solution of 1% zinc sulfate and acetonitrile, mixed in a vortex and centrifuged for 10 min at 15,000 rpm. The supernatant was then injected into the HPLC and analysed for quantification of benzoic acid and remaining benzoate. All quantifications were performed using calibration curves.

[3] = Chemical stability in phosphate buffer pH 7.4
Description: Chemical hydrolysis was evaluated in phosphate buffer at physiological pH (7.4) to determine its influence in enzymatic studies.
1176 µL pH 7.4 phosphate buffer or pH 5.9 phosphate buffer, 18 µL ACN and 6 µL of a 10-1 M stock solution of the prodrug in ACN were mixed in a 2mL vial. The solution was incubated at 37 °C and 50 µL aliquots were removed, mixed with 450 µL of ACN: H2O 1:1. The solution was analysed by HPLC, the remaining substrate and the correspondent acid were both measured.
The eluant was a mixture of acetonitrile (60%/70%) and aqueous phosphate buffer with 5% of KH2PO4/H3PO4 0.025M (40%/30%). The flow rate was always 1 mL/1 min and wavelength was set at 230 nm. All quantifications were evaluated using calibration curves from stock solutions.
The initial substrate concentration was 5 x 10^-4 M in all stability assays. All incubations were carried out at pH 7.4 and 37 °C under agitation using the phosphate buffer described above as diluting agent. […] Acetonitrile (2%) was used in all studies to ensure adequate solubilization of the substrates.

[4] = test system: Mycobacterium smegmatis homogenate; assay: Stability in Mycobacterium smegmatis homogenate (enzymatic hydrolysis); conditions: Mycobacterium smegmatis homogenate, 37°C
[5] = Cytotoxicity assay in THP-1 cells; format: cell-based, human; conditions: human, THP-1 cells, read-out: LC50 (the source's name)
Text: (§1) Cytotoxicity results were obtained through lethal concentration for 50% of the cell population, LC50. Table 6. Results obtained from cytotoxicity assays for the esters, represented by LD50 in µg/mL and comparison with MIC values, in µg/mL with toxicity/activity (T/A) index.
(§2) The T/A index quantitatively is the ratio between the lethal concentration (LC50) given by the minimum inhibitory concentration (MIC).

[6] = test system: human monocytic cell line THP-1 (ATCC56 TIB202); assay: Cytotoxicity assay in THP-1 cells; format: cell-based; conditions: toxicity/activity index: ratio LC50 (THP-1) / MIC (M. tuberculosis H37Rv)
Text: as §1, §2

[7] = test system: Mycobacterium Bovis BCG infecting human macrophages THP-1; format: cell-based
[8] = THP-1 monocytic cells, lethal concentration for 50% of the cell population
[9] = M. tuberculosis H37Rv, Table 3, read-out: MBC
[10] = M. tuberculosis H37Rv, Tables 3, 6 and 7, read-out: MIC
[11] = THP-1 monocytic cells, n/d (no toxicity at maximum tested dose)
[12] = n/d (no toxicity at maximum tested dose)
[13] = Time 0 days, compound concentration 2 µg/ml
[14] = Time 1 day, compound concentration 2 µg/ml
[15] = Time 3 days, compound concentration 2 µg/ml
[16] = Time 7 days, compound concentration 2 µg/ml

| Compound | Degradation (%) 24h [2] [%] | Degradation (%) 48h [2] [%] | Degradation (%) 72h [2] [%] | Degradation (%) 24h [3] [%] | Degradation (%) 48h [3] [%] | Degradation (%) 72h [3] [%] | Degradation (%) 168h [3] [%] | Degradation (%) 332h [3] [%] | Degradation (%) 24h [4] [%] | Degradation (%) 48h [4] [%] | CC50 [5, 8] [µg/mL] | T/A [6] | MBC [1, 9] [µg/mL] | MIC [1, 10] [µg/mL] | further results |
| --- | --- | --- | --- | --- | --- | --- | --- | --- | --- | --- | --- | --- | --- | --- | --- |
| CCCCCCCCOC(=O)c1cc([N+](=O)[O-])cc([N+](=O)[O-])c1 [Compound 3c] | 57 | 81 | 92 | 0 | 0 | 1 | 2 | 3 | 10 | 19 |  |  |  |  | MBC [1]: 8 µg/mL (≈ 24.7 µM); MIC [1]: 8 µg/mL (≈ 24.7 µM) |
| CCCCCCCCNC(=O)c1ccc([N+](=O)[O-])cc1 [Compound 6c, N-octyl-4-nitrobenzamide] | 0 | 0 | 1 | 0 | 0 | 0 | 0 | 0 | 3 | 5 | 308 (≈ 1110 µM) | 2 | 256 (≈ 920 µM) | 128 (≈ 460 µM) |  |
| CCCCCCCCCCOC(=O)c1cc([N+](=O)[O-])cc(C(F)(F)F)c1 [Compound 4d, Decyl 3-nitro-5-(trifluoromethyl)benzoate] | 26 | 45 | 60 |  |  |  |  |  | 5 | 10 |  |  | 256 (≈ 682 µM) | 128 (≈ 341 µM) | CC50 [5, 11]: > 512 µg/mL |
| CCCCCCCCCCCCOC(=O)c1cc([N+](=O)[O-])cc([N+](=O)[O-])c1 [Compound 3e] | 29 | 50 | 65 | 0 | 0 | 1 | 1 | 2 | 4 | 8 |  |  |  |  | CC50 [5, 12]: > 512 µg/mL; MBC [1]: 16 µg/mL (≈ 42.1 µM); MIC [1]: 8 µg/mL (≈ 21 µM) |
| CCCCCCNC(=O)c1ccccc1 [Compound 5b, N-hexyl-benzamide] |  |  |  |  |  |  |  |  | 1 | 2 |  |  | 64 (≈ 312 µM) | 64 (≈ 312 µM) |  |
| CCCCCCCCCCCCOC(=O)c1cc([N+](=O)[O-])cc(C(F)(F)F)c1 [Compound 4e, Dodecyl 3-nitro-5-(trifluoromethyl)benzoate] | 1 | 2 | 3 | 1 | 2 | 3 | 6 | 11 | 3 | 6 |  |  | > 1020 | > 1020 | CC50 [5, 11]: > 512 µg/mL |
| CCCCCCCCCCCCNC(=O)c1ccccc1 [Compound 5e, N-dodecyl-benzamide] | 0 | 0 | 0 | 0 | 0 | 0 | 0 | 0 | 0 | 0 |  |  | > 256 | > 256 |  |
| CCCCNC(=O)c1ccccc1 [Compound 5a, N-butyl-benzamide] | 0 | 0 | 0 | 0 | 0 | 0 | 0 | 0 | 2 | 3 |  |  | 256 (≈ 1440 µM) | 256 (≈ 1440 µM) |  |
| CCCCCCNC(=O)c1cc([N+](=O)[O-])cc(C(F)(F)F)c1 [Compound 8b, N-hexyl-3-nitro-5-(trifluoromethyl)-benzamide] |  |  |  |  |  |  |  |  | 7 | 14 | 23 (≈ 72.3 µM) | 46 | ≤ 0.5 | ≤ 0.5 |  |
| CCCCCCCCCCCCNC(=O)c1ccc([N+](=O)[O-])cc1 [Compound 6e, N-dodecyl-4-nitrobenzamide] | 0 | 0 | 1 | 0 | 0 | 0 | 0 | 0 | 2 | 3 |  |  | 256 (≈ 765 µM) | 256 (≈ 765 µM) |  |
| CCCCCCCCCCCCCCOC(=O)c1cc([N+](=O)[O-])cc([N+](=O)[O-])c1 [Compound 3f] | 23 | 51 | 65 |  |  |  |  |  | 3 | 6 |  |  |  |  | CC50 [5, 12]: > 512 µg/mL; CFU x10^4 [7, 13]: 9.2 CFUs per mL; CFU x10^4 [7, 14]: 12.16 CFUs per mL; CFU x10^4 [7, 15]: 13.66 CFUs per mL; CFU x10^4 [7, 16]: 7.25 CFUs per mL; MBC [1]: > 1020 µg/mL; MIC [1]: 16 µg/mL (≈ 39.2 µM) |
| CCCCCCCCCCNC(=O)c1cc([N+](=O)[O-])cc(C(F)(F)F)c1 [Compound 8d, N-decyl-3-nitro-5-(trifluoromethyl)-benzamide] |  |  |  |  |  |  |  |  | 2 | 3 | 53 (≈ 142 µM) | 106 | 0.5 (≈ 1.34 µM) | 0.5 (≈ 1.34 µM) |  |
| CCCCCCCCCCCCNC(=O)c1cc([N+](=O)[O-])cc(C(F)(F)F)c1 [Compound 8e, N-dodecyl-3-nitro-5-(trifluoromethyl)-benzamide] | 0 | 0 | 0 | 0 | 0 | 0 | 0 | 0 | 1 | 3 | 113 (≈ 281 µM) | 226 | 0.5 (≈ 1.24 µM) | 0.5 (≈ 1.24 µM) |  |
| CCCCCCCCCCOC(=O)c1cc([N+](=O)[O-])cc([N+](=O)[O-])c1 [Compound 3d, Decyl 3,5-dinitrobenzoate] | 18 | 32 | 44 |  |  |  |  |  | 5 | 9 |  |  |  |  | CC50 [5, 11]: > 512 µg/mL; CFU x10^4 [7, 13]: 9.2 CFUs per mL; CFU x10^4 [7, 14]: 12.5 CFUs per mL; CFU x10^4 [7, 15]: 12.5 CFUs per mL; CFU x10^4 [7, 16]: 8.5 CFUs per mL; MBC [1]: 4 µg/mL (≈ 11.4 µM); MIC [1]: 4 µg/mL (≈ 11.4 µM) |
| CCCCCCCCNC(=O)c1ccccc1 [Compound 5c, N-octyl-benzamide] | 0 | 0 | 0 | 0 | 0 | 0 | 0 | 0 | 1 | 2 | 188 (≈ 806 µM) | 6 | 32 (≈ 137 µM) | 32 (≈ 137 µM) |  |
| NNC(=O)c1ccncc1 [INH, isoniazid, reference compound] |  |  |  |  |  |  |  |  |  |  |  |  | 0.05 (≈ 0.365 µM) | 0.025 (≈ 0.182 µM) | CFU x10^4 ([7]; Time 0 days, concentration 0.1 µg/ml): 9.2 CFUs per mL; CFU x10^4 ([7]; Time 1 day, concentration 0.1 µg/ml): 9.91 CFUs per mL; CFU x10^4 ([7]; Time 3 days, concentration 0.1 µg/ml): 1.33 CFUs per mL; CFU x10^4 ([7]; Time 7 days, concentration 0.1 µg/ml): 0.24 CFUs per mL |
| CCCCCCCCCCCCCCCCOC(=O)c1cc([N+](=O)[O-])cc([N+](=O)[O-])c1 [Compound 3g, Hexadecyl 3,5-dinitrobenzoate] | 1 | 3 | 4 |  |  |  |  |  | 2 | 4 |  |  |  |  | CC50 [5, 11]: > 512 µg/mL; MBC [1]: > 1020 µg/mL; MIC [1]: > 1020 µg/mL |
| CCCCCCCCOC(=O)c1cc([N+](=O)[O-])cc(C(F)(F)F)c1 [Compound 4c, Octyl 3-nitro-5-(trifluoromethyl)benzoate] | 42 | 67 | 81 | 0 | 1 | 1 | 3 | 6 | 8 | 16 |  |  |  |  |  |
| CCCCCCCCNC(=O)c1cc([N+](=O)[O-])cc(C(F)(F)F)c1 [Compound 8c, N-octyl-3-nitro-5-(trifluoromethyl)-benzamide] | 0 | 0 | 0 | 0 | 0 | 0 | 0 | 0 | 5 | 11 | 14 (≈ 40.4 µM) | 222 | 0.063 (≈ 0.182 µM) | 0.063 (≈ 0.182 µM) |  |
